Our source for the IC50 values is patent publication US5366982A (priority 1990, dated 1994).

pIC50: −log10 of the molar value. Where two headings read alike, the source gives them in different places.

One test concerns the target leukotriene B4 receptors (Cavia porcellus, UniProt H0VYV8). Briefly: biochemical. The format is binding, guinea-pig. The settings on record: Table XIX; guinea-pig spleen membranes, tritium-labelled LTB4; read-out: IC50 Binding (Cheng).
For test [1], the system named is guinea-pig pulmonary parenchyma. The test can be described thus: L. Parenchyma: guinea-pig pulmonary parenchyma contraction antagonism induced by LTB4 (Sirois). The class given is cell-based. The conditions noted are these: Table XIX, guinea-pig pulmonary parenchyma contraction induced by LTB4, read-out: IC50 L. Parenchyma. As for the experimental part:
Further, compounds of this invention are shown to be leukotriene B4 antagonists in the technique of guinea-pig pulmonary parenchyma contraction antagonism induced by LTB4 described by P. Sirois et al., Pharmacology, 31, 225-236 (1985). In this technique, products are active at concentrations of between about 1 to about 10,000 nM.

leukotriene B4 receptors, sequence (H0VYV8 1-348): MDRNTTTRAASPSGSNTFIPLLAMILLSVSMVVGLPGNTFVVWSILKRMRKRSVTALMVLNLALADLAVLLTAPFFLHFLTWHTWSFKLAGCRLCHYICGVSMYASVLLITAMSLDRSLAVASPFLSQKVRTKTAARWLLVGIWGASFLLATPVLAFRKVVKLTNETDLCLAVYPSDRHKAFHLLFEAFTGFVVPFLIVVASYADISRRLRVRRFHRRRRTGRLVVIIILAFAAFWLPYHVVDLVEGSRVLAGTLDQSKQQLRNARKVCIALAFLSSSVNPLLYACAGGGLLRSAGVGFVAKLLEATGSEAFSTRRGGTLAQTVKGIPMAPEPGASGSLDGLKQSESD

In the case of “6-[(6-cyclopropyl-5-phenyl-2-pyridyl)oxy]-2,2-dimethylhexanoic acid”, the pIC50 at leukotriene B4 receptors was 8.40; in test [1], 6.70.

On to `CC(C)(CCCCOc1cc(-c2cccc(Cl)c2)cc(-c2ccccc2)n1)C(=O)O` [2,2-dimethyl-6-{[4-(3-chlorophenyl)-6-phenyl-2-pyridyl]oxy}hexanoic acid], for which the pIC50 at leukotriene B4 receptors was 7.89; in test [1] (Cavia porcellus), 6.00.

Take `COc1cccc(-c2cc(OCCCCC(C)(C)C(=O)O)nc(-c3ccccc3)c2)c1` [2,2-dimethyl-6-{[4-(3-methoxyphenyl)-6-phenyl-2-pyridyl]oxy}hexanoic acid]: the pIC50 on leukotriene B4 receptors is 8.70; in test [1] (Cavia porcellus), 7.52.

`CC(C)(CCCCOc1cc(-c2ccc(N)cc2)cc(-c2ccccc2)n1)C(=O)O` [2,2-dimethyl-6-{[4-(4-aminophenyl)-6-phenyl-2-pyridyl]oxy}hexanoic acid]: the pIC50 on leukotriene B4 receptors is 8.00; in test [1] (Cavia porcellus) it was 9.00.

As for `CC(C)(CCCCOc1cc(-c2ccc(F)cc2)cc(-c2ccccc2)n1)C(=O)O` [2,2-dimethyl-6-{[4-(4-fluorophenyl)-6-phenyl-2-pyridyl]oxy}hexanoic acid], the pIC50 on leukotriene B4 receptors is 8.15; in test [1] (Cavia porcellus), 6.52.

For the compound `COc1ccc(-c2cc(OCCCCC(C)(C)C(=O)O)nc(-c3ccccc3)c2)cc1` [2,2-dimethyl-6-{[4-(4-methoxyphenyl)-6-phenyl-2-pyridyl]oxy}hexanoic acid], the results for the pIC50 (at leukotriene B4 receptors; in test [1] (Cavia porcellus)) were 7.30 and 6.77, respectively.

In the case of `CC(C)(CCCCOc1cc(-c2ccccc2)cc(-c2cccs2)n1)C(=O)O` [2,2-dimethyl-6-{[4-phenyl-6-(2-thienyl)-2-pyridyl]oxy}hexanoic acid], the pIC50 was 7.82 on leukotriene B4 receptors and 6.00 in test [1] (Cavia porcellus).

As for `CC(C)(CCCCOc1cc(-c2ccccc2)cc(-c2ccsc2)n1)C(=O)O` [2,2-dimethyl-6-{[4-phenyl-6-(3-thienyl)-2-pyridyl]oxy}hexanoic acid], the pIC50 at leukotriene B4 receptors was 8.30; in test [1] (Cavia porcellus), 7.00.

For `CC(C)(CCCCOc1cc(-c2ccccc2)cc(-c2ccccc2F)n1)C(=O)O` [2,2-dimethyl-6-{[6-(2-fluorophenyl)-4-phenyl-2-pyridyl]oxy}hexanoic acid], the negative logarithm of the IC50 (pIC50) at leukotriene B4 receptors was 8.30; in test [1] (Cavia porcellus) it was 7.10.

Take `CCC(C)(CCCCOc1cc(-c2ccccc2)cc(-c2ccccc2)n1)C(=O)O` (stereo not drawn) [2-ethyl-2-methyl-6-[(4,6-diphenyl-2-pyridyl)oxy]hexanoic acid]: the negative logarithm of the IC50 (pIC50) was 7.77 at leukotriene B4 receptors and 7.52 in test [1] (Cavia porcellus).

As to `CCC(CCCCOc1cc(-c2ccccc2)cc(-c2ccccc2)n1)C(=O)O` (stereo not drawn) [2-ethyl-6-[(4,6-diphenyl-2-pyridyl)oxy]hexanoic acid], the pIC50 on leukotriene B4 receptors was 8.52; in test [1] (Cavia porcellus), 7.15.

`CC(CCCCOc1cc(-c2ccccc2)cc(-c2ccccc2)n1)C(=O)O` (stereo not drawn) [2-methyl-6-[(4,6-diphenyl-2-pyridyl)oxy]hexanoic acid]: the pIC50 is 8.40 on leukotriene B4 receptors and 8.00 in test [1] (Cavia porcellus).

For the compound `CC(CCCCOc1cc(-c2ccc3c(c2)OCO3)cc(-c2ccccc2)n1)C(=O)O` (stereo not drawn) [2-methyl-6-{[4-(3,4-methylenedioxyphenyl)-6-phenyl-2-pyridyl]oxy}hexanoic acid], the pIC50 on leukotriene B4 receptors is 8.15; in test [1] (Cavia porcellus), 8.60.

As for `CC(CCCCOc1cc(-c2ccc(F)cc2)cc(-c2ccccc2)n1)C(=O)O` (stereo not drawn) [2-methyl-6-{[4-(4-fluorophenyl)-6-phenyl-2-pyridyl]oxy}hexanoic acid], the pIC50 at leukotriene B4 receptors is 8.77; in test [1] (Cavia porcellus), 7.22.

As for `CC(CCCCOc1cc(-c2ccccc2)cc(-c2ccccc2F)n1)C(=O)O` (stereo not drawn) [2-methyl-6-{[6-(2-fluorophenyl)-4-phenyl-2-pyridyl]oxy}hexanoic acid], the pIC50 was 8.40 at leukotriene B4 receptors and 8.22 in test [1] (Cavia porcellus).

`O=C(O)c1ccc(COc2cc(-c3ccccc3)cc(-c3ccccc3)n2)cc1` [4-[(4,6-diphenyl-2-pyridyl)oxymethyl]benzoic acid]: the pIC50 at leukotriene B4 receptors is 6.46; in test [1] (Cavia porcellus), 5.00.

For `O=C(O)CCCCOc1cc(-c2ccccc2)cc(-c2ccccc2)n1` [5-[(4,6-diphenyl-2-pyridyl)oxy]pentanoic acid], the pIC50 at leukotriene B4 receptors is 7.30; in test [1] (Cavia porcellus), 5.70.

Turning to `CC(C)(CCCCOc1cc(-c2ccccc2)cc(-c2ccccc2)n1)c1nnn[nH]1` [5-{1,1-dimethyl-5-[(4,6-diphenyl-2-pyridyl)oxy]pentyl}-[1H]-tetrazole], the pIC50 is 8.15 at leukotriene B4 receptors and 7.70 in test [1] (Cavia porcellus).

For `NC(=O)CCCCCOc1cc(-c2ccccc2)cc(-c2ccccc2)n1` [6-[(4,6-diphenyl-2-pyridyl)oxy]hexanamide], the pIC50 was 6.80 at leukotriene B4 receptors and less than 6.00 in test [1] (Cavia porcellus).

Consider `O=C(O)CCCCCOc1cc(-c2ccccc2)cc(-c2ccccc2)n1` [6-[(4,6-diphenyl-2-pyridyl)oxy]hexanoic acid], for which the figures for the negative logarithm of the IC50 (pIC50) (on leukotriene B4 receptors; in test [1] (Cavia porcellus)) were 8.52 and 6.52, respectively.

As to `CC(C)(CCCCOc1nc(-c2ccccc2)cc(-c2ccccc2)n1)C(=O)O` [6-[(4,6-diphenyl-2-pyrimidyl)oxy]-2,2-dimethylhexanoic acid], the pIC50 is 8.00 at leukotriene B4 receptors and 6.00 in test [1] (Cavia porcellus).

For the compound `CC(C)(CCCCOc1cc(-c2ccccc2)ccn1)C(=O)O` [6-[(4-phenyl-2-pyridyl)oxy]-2,2-dimethylhexanoic acid], the values for the pIC50 (on leukotriene B4 receptors; in test [1] (Cavia porcellus)) were 7.40 and 5.52, respectively.

`CC(C)(CCCCOc1cc(-c2ccccc2)cc(C(C)(C)C)n1)C(=O)O` [6-[(6-ter-butyl-4-phenyl-2-pyridyl)oxy]-2,2-dimethylhexanoic acid]: the figures for the pIC50 (at leukotriene B4 receptors; in test [1] (Cavia porcellus)) were 7.40 and 6.00, respectively.

Turning to `CC(C)(C)c1cc(-c2ccccc2)cc(OCCCCCC(=O)O)n1` [6-[(6-ter-butyl-5-phenyl-2-pyridyl)oxy]hexanoic acid], the values for the pIC50 (at leukotriene B4 receptors; in test [1] (Cavia porcellus)) were 6.52 and 5.70, respectively.

Regarding `O=C(O)CCCCCOc1cc(-c2ccc3c(c2)OCO3)cc(-c2ccccc2)n1` [6-{[4-(3,4-methylenedioxyphenyl)-6-phenyl-2-pyridyl]oxy}hexanoic acid], the pIC50 is 9.00 at leukotriene B4 receptors and 8.30 in test [1] (Cavia porcellus).

For `O=C(O)CCCCCOc1cc(-c2cccc(F)c2)cc(-c2ccccc2)n1` [6-{[4-(3-fluorophenyl)-6-phenyl-2-pyridyl]oxy}hexanoic acid], the pIC50 was 8.52 at leukotriene B4 receptors and 6.70 in test [1] (Cavia porcellus).

As to `COc1cccc(-c2cc(OCCCCCC(=O)O)nc(-c3ccccc3)c2)c1` [6-{[4-(3-methoxyphenyl)-6-phenyl-2-pyridyl]oxy}hexanoic acid], the results for the pIC50 (on leukotriene B4 receptors; in test [1] (Cavia porcellus)) were 8.10 and 6.70, respectively.

Take `O=C(O)CCCCCOc1cc(-c2ccc(Cl)cc2)cc(-c2ccccc2)n1` [6-{[4-(4-chlorophenyl)-6-phenyl-2-pyridyl]oxy}hexanoic acid]: the pIC50 is 8.00 on leukotriene B4 receptors and 7.00 in test [1] (Cavia porcellus).

Consider `O=C(O)CCCCCOc1cc(-c2ccc(F)cc2)cc(-c2ccccc2F)n1` [6-{[4-(4-fluorophenyl)-6-(2-fluorophenyl)-2-pyridyl]oxy}hexanoic acid], for which the pIC50 on leukotriene B4 receptors is 8.00; in test [1] (Cavia porcellus), 6.00.

For `O=C(O)CCCCCOc1cc(-c2ccc(F)cc2)cc(-c2ccccc2)n1` [6-{[4-(4-fluorophenyl)-6-phenyl-2-pyridyl]oxy}hexanoic acid], the pIC50 was 8.52 on leukotriene B4 receptors and 6.10 in test [1] (Cavia porcellus).
